The structures appear in SMILES notation.

As usually defined, the IC50 is the midpoint of a concentration-inhibition curve. A high value points to weaker potency in that assay.

The assay addresses hENPP2 (UniProtKB/SwissProt Sequence ref Q13822) (Homo sapiens (Human), UniProt Q13822). The assay can be described thus: LPC hENPP2 assay (choline release, LPC as substrate). In kind it is biochemical. As to the method: The principle of the assay consists in quantifying the released choline with an enzymatic method using choline oxidase and peroxidase. Choline oxydation by choline oxydase releases betaine and peroxide. The latter is quantified in presence of HRP that converts the peroxide detection agent TOOS and 4-aminoantipyrine into quinoneimine dye. The appearance of quinoneimine dye is measured spectrophotometrically at 555 nm and is proportional to the amount of choline released by ENPP2. Inhibition of ENPP2 will result in a decrease of the signal.
The reaction is terminated and choline quantified by the addition of a 25 μL of a mixture containing 0.6 U/mL of choline oxidase, 0.6 U/mL of peroxydase, 1.8 mM TOOS, 1.2 mM amino-antipyrine, 20 mM EGTA (stop-developer solution) diluted in the buffer described above. […] is read on the Envision after an incubation of 30 min at room temperature (Excitation 555 nm, excitation light=70%).
As for `CCc1nc2ccc(N3CC[C@H](C#N)C3)nn2c1N(C)c1nc(-c2ccc(F)cc2)cs1` [Cpd 128, (S)-1-(2-ethyl-3-((4-(4-fluorophenyl)thiazol-2-yl)(methyl)amino)imidazo[1,2-b]pyridazin-6-yl)pyrrolidine-3-carbonitrile], the IC50 is over 1000 nM.

Regarding `CCNC(=O)COC1CCCN(c2ccc3nc(CC)c(N(C)c4nc(-c5ccc(F)cc5)cs4)n3n2)C1` (centres unmarked) [Cpd 92, N-ethyl-2-(1-(2-ethyl-3-((4-(4-fluorophenyl)thiazol-2-yl)(methyl)amino)imidazo[1,2-b]pyridazin-6-yl)piperidin-3-yloxy)acetamide], the IC50 was over 1000 nM.

`CCc1nc2ccc(N3CCN(CC4CNC(=O)O4)CC3)nn2c1N(C)c1nc(-c2ccc(F)cc2)c(C#N)s1` (centres unmarked) [Cpd 160, 2-((2-ethyl-6-(4-((2-oxooxazolidin-5-yl)methyl)piperazin-1-yl)imidazo[1,2-b]pyridazin-3-yl)(methyl)amino)-4-(4-fluorophenyl) thiazole-5-carbonitrile] gave a half-maximal inhibitory concentration (IC50) of 0.01 to 100 nM. For `CCc1nc2cnc(N3CCN(CC(=O)N4CC(O)C4)CC3)cn2c1N(C)c1cccc(-c2ccc(F)cc2C#N)n1` [Cpd 17, 2-(6-((2-ethyl-6-(4-(2-(3-hydroxyazetidin-1-yl)-2-oxoethyl)piperazin-1-yl)imidazo[1,2-a]pyrazin-3-yl)(methyl)amino)pyridin-2-yl)-5-fluorobenzonitrile], the IC50 was over 1000 nM. As for `CCc1nc2ccc(N3CCN(CC(=O)N4CCC(F)(F)C4)CC3)nn2c1N(C)c1nc(-c2ccc(F)cc2)cs1` [Cpd 31, 1-(3,3-difluoropyrrolidin-l-yl)-2-(4-(2-ethyl-3-((4-(4-fluorophenyl)thiazol-2-yl)(methyl)amino)imidazo[1,2-b]pyridazin-6-yl)piperazin-l-yl)ethanone], the figure is 100 to 500 nM. On to `CCc1nc2ccc(N3CCC(CNC(=O)C4CCOCC4)CC3)nn2c1N(C)c1nc(-c2ccc(F)cc2)cs1` [Cpd 107, N-((1-(2-ethyl-3-((4-(4-fluorophenyl)thiazol-2-yl)(methyl)amino)imidazo[1,2-b]pyridazin-6-yl)piperidin-4-yl)methyl) tetrahydro-2H-pyran-4-carboxamide], for which the half-maximal inhibitory concentration (IC50) lay within 500 to 1000 nM. As for `CCc1nc2ccc(C3CCN(CC(=O)N4CC(O)C4)CC3)nn2c1N(C)c1nc(-c2ccc(F)cc2C#N)c(C)s1` [Cpd 210, 2-(2-((2-ethyl-6-(1-(2-(3-hydroxyazetidin-1-yl)-2-oxoethyl)piperidin-4-yl)imidazo[1,2-b]pyridazin-3-yl)(methyl)amino)-5-methylthiazol-4-yl)-5-fluorobenzonitrile], the figure is over 1000 nM; as for `CCc1nc2ccc(N3CCN(CC4CNC(=O)O4)CC3)nn2c1N(C)c1nc(-c2ccc(F)cc2)c(CO)s1` (centres unmarked) [Cpd 41, 5-((4-(2-ethyl-3-((4-(4-fluorophenyl)-5-(hydroxymethyl)thiazol-2-yl)(methyl)amino)imidazo[1,2-b]pyridazin-6-yl)piperazin-1-yl)methyl) oxazolidin-2-one], 500 to 1000 nM.

In turn, `CCc1nc2ccc(N3CCC(NC(=O)CO)C3)nn2c1N(C)c1nc(-c2ccc(F)cc2)cs1` (centres unmarked) [Compound 136, N-(1-(2-ethyl-3-((4-(4-fluorophenyl)thiazol-2-yl)(methyl)amino)imidazo[1,2-b]pyridazin-6-yl)pyrrolidin-3-yl)-2-hydroxyacetamide] showed an IC50 of over 1000 nM.

In turn, `CCc1nc2ccc(N3CC(NCC(=O)N4CC(O)C4)C3)nn2c1N(C)c1nc(-c2ccc(F)cc2)c(C#N)s1` [Cpd 189, 2-((2-ethyl-6-(3-(2-(3-hydroxyazetidin-1-yl)-2-oxoethylamino)azetidin-1-yl)imidazo[1,2-b]pyridazin-3-yl)(methyl)amino)-4-(4-fluorophenyl) thiazole-5-carbonitrile] came in with an IC50 of 0.01 to 100 nM. On to `CCc1nc2ccc(N3CCC(O)(CNC(=O)OC)C3)nn2c1N(C)c1nc(-c2ccc(F)cc2)c(C#N)s1` (centres unmarked) [Cpd 168, methyl (1-(3-((5-cyano-4-(4-fluorophenyl)thiazol-2-yl)(methyl)amino)-2-ethylimidazo[1,2-b]pyridazin-6-yl)-3-hydroxypyrrolidin-3-yl)], for which the half-inhibitory concentration (IC50) fell in the range of 0.01 to 100 nM. As for `CCc1nc2ccc(N3CCC(=O)C3)nn2c1N(C)c1nc(-c2ccc(F)cc2)c(Cl)s1` [Compound 132, 1-(3-((5-chloro-4-(4-fluorophenyl)thiazol-2-yl)(methyl)amino)-2-ethylimidazo[1,2-b]pyridazin-6-yl)pyrrolidin-3-one], the half-inhibitory concentration (IC50) was over 1000 nM. For `CCc1nc2ccc(N3C[C@H]4C[C@H]3CN4S(C)(=O)=O)nn2c1N(C)c1nc(-c2ccc(F)cc2)cs1` [Cpd 76, N-(2-ethyl-6-((1S,4R)-5-(methylsulfonyl)-2,5-diazabicyclo[2.2.1]heptan-2-yl)imidazo[1,2-b]pyridazin-3-yl)-4-(4-fluorophenyl)-N-methylthiazol-2-amine], the half-maximal inhibitory concentration (IC50) was over 1000 nM. For the compound `CCc1nc2ccc(N3CCC4(CN(C)C(=O)O4)C3)nn2c1N(C)c1nc(-c2ccc(F)cc2)c(C#N)s1` (centres unmarked) [Cpd 164, 2-((2-ethyl-6-(3-methyl-2-oxo-1-oxa-3,7-diazaspiro[4.4]nonan-7-yl)imidazo[1,2-b]pyridazin-3-yl)(methyl)amino)-4-(4-fluorophenyl) thiazole-5-carbonitrile], the IC50 lay within 100 to 500 nM. Compound `CCc1nc2ccc(N3CCC(N4CCN(C(C)=O)CC4)C3)nn2c1N(C)c1nc(-c2ccc(F)cc2)c(C#N)s1` (centres unmarked) [Cpd 180, 2-((6-(3-(4-acetoylpiperazin-1-yl)pyrrolidin-1-yl)-2-ethylimidazo[1,2-b]pyridazin-3-yl)(methyl)amino)-4-(4-fluorophenyl) thiazole-5-carbonitrile] showed a half-inhibitory concentration (IC50) of 0.01 to 100 nM. Compound `CCc1nc2ccc(N3CCC(N4CCOCC4)C3)nn2c1N(C)c1nc(-c2ccc(F)cc2)c(CO)s1` (centres unmarked) [Cpd 148, (2-((2-ethyl-6-(3-morpholino-pyrrolidin-1-yl)imidazo[1,2-b]pyridazin-3-yl)(methyl)amino)-4-(4-fluorophenyl)thiazol-5-yl) methanol] had an IC50 of 500 to 1000 nM. For the compound `CCc1nc2ccc(N3CC(NC(=O)OC(C)(C)C)C3)nn2c1N(C)c1nc(-c2ccc(F)cc2)c(C#N)s1` [Cpd 187, [1-(3-{[5-Cyano-4-(4-fluoro-phenyl)-thiazol-2-yl]-methyl-amino}-2-ethyl-imidazo[1,2-b]pyridazin-6-yl)-azetidin-3-yl]-carbamic acid tert-butyl ester], the IC50 lay in the range of 100 to 500 nM. Compound `CCc1nc2ccc(N3CCC(N4CCC(O)CC4)C3)nn2c1N(C)c1nc(-c2ccc(F)cc2)c(C#N)s1` (centres unmarked) [Cpd 182, 2-((2-ethyl-6-(3-(4-hydroxypiperidin-1-yl)pyrrolidin-1-yl)imidazo[1,2-b]pyridazin-3-yl)(methyl)amino)-4-(4-fluorophenyl) thiazole-5-carbonitrile] displayed a half-inhibitory concentration (IC50) of 0.01 to 100 nM. Regarding `CCc1nc2ccc(N3C[C@H]4C[C@H]3CN4C(C)=O)nn2c1N(C)c1nc(-c2ccc(F)cc2)cs1` [Cpd 75, 1-((1R,4S)-5-(2-ethyl-3-((4-(4-fluorophenyl)thiazol-2-yl)(methyl)amino)imidazo[1,2-b]pyridazin-6-yl)-2,5-diazabicyclo[2.2.1]heptan-2-yl)ethanone], the IC50 is over 1000 nM. Regarding `CCc1nc2ccc(N3CCN(CC(=O)NCCO)CC3)nn2c1N(C)c1nc(-c2ccc(F)cc2)cs1` [Cpd 35, 2-(4-(2-ethyl-3-((4-(4-fluorophenyl)thiazol-2-yl)(methyl)amino)imidazo[1,2-b]pyridazin-6-yl)piperazin-1-yl)-N-(2-hydroxyethyl) acetamide], the IC50 was over 1000 nM.

The record behind these values is patent US9796719B2, “Compounds and pharmaceutical compositions thereof for the treatment of inflammatory disorders” (GALAPAGOS NV, priority 2013, dated 2017).
